Results published in patent US6831190B1, “Guanidinomethyl cyclohexane carboxylic acid ester derivatives” (Teikoku Chemical Industries Co., Ltd., priority 1994, dated 2004).
One block for each molecule: values may come before it.

How the values were obtained:
[1] = test system: Helicobacter pylori No. 19; assay: MIC, agar plating dilution, clinical segregation strain; type: cell-based; settings: Strain 8: Helicobacter pylori No. 19
In short: (§1)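 Agar plate dilution per Japanese Chemotherapy Society standard method, with compounds from DMSO solutions mixed into Brain Heart Infusion agar containing 0.1% cyclodextrin. Plates were read after 3 days at 37 °C under microaerobic conditions.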

[2] = test system: Helicobacter pylori No. 1; assay: as above; type: cell-based; settings: Strain 4: Helicobacter pylori No. 1
In short: as §1

[3] = test system: Helicobacter pylori No. 28; assay: as above; type: cell-based; settings: Strain 10: Helicobacter pylori No. 28
In short: as §1

[4] = test system: Helicobacter pylori No. 20; assay: as above; type: cell-based; settings: Strain 9: Helicobacter pylori No. 20
In short: as §1

[5] = test system: Helicobacter pylori No. 3; assay: as above; type: cell-based; settings: Strain 6: Helicobacter pylori No. 3
In short: as §1

[6] = test system: Helicobacter pylori No. 2; assay: as above; type: cell-based; settings: Strain 5: Helicobacter pylori No. 2
In short: as §1

[7] = test system: Helicobacter pylori No. 4; assay: as above; type: cell-based; settings: Strain 7: Helicobacter pylori No. 4
In short: as §1

[8] = test system: Helicobacter pylori No. 1; assay: MIC and MBC, liquid medium dilution; type: cell-based; settings: Objected Strain 4: Helicobacter pylori No. 1
Method: (§2) 2. Minimum Inhibitory Concentration (MIC) and Minimum Bacteria sterilizeory Concentration (MBC) against helicobacter pylon were measured in accordance with the liquid medium dilution. […] And […] of helicobacter pylon bacterial solution, which was cultured at 37° C. for three days and then diluted and prepared with the above mentioned liquid medium, was added to the mixtures to adjust the volume to 105 CFU/ml. […] After they were cultured by the same method as above mentioned, minimum concentration of the compounds which were not recognized the growth with the naked eyes were measured as the values of MBC.

[9] = test system: Helicobacter pylori ATCC 43504; assay: MIC and MBC, liquid medium dilution; type: cell-based; settings: Objected Strain 1: Helicobacter pylori ATCC 43504
Method: as §2

[10] = test system: Helicobacter pylori No. 3; assay: MIC and MBC, liquid medium dilution; type: cell-based; settings: Objected Strain 6: Helicobacter pylori No. 3
Method: as §2

[11] = test system: Helicobacter pylori ATCC 43629; assay: MIC and MBC, liquid medium dilution; type: cell-based; settings: Objected Strain 2: Helicobacter pylori ATCC 43629
Method: as §2

[12] = test system: Helicobacter pylori No. 2; assay: MIC and MBC, liquid medium dilution; type: cell-based; settings: Objected Strain 5: Helicobacter pylori No. 2
Method: as §2

[13] = test system: Helicobacter pylori No. 4; assay: MIC and MBC, liquid medium dilution; type: cell-based; settings: Objected Strain 7: Helicobacter pylori No. 4
Method: as §2

[14] = test system: Helicobacter pylori ATCC 43504; assay: MIC, agar plating dilution (standard method of Japanese Chemotherapy Academy); type: cell-based; settings: Objected Strain 1: Helicobacter pylori ATCC 43504
In short: (§3)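 Agar dilution MIC followed the Japanese Chemotherapy Academy standard method, on Brain Heart Infusion agar with 0.1% cyclodextrin and compounds dissolved in DMSO. Plates were incubated microaerobically at 37 °C for three days.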

[15] = test system: Helicobacter pylori ATCC 43629; assay: as above; type: cell-based; settings: Objected Strain 2: Helicobacter pylori ATCC 43629
In short: as §3

[16] = test system: Escherichia coli NIH JC-2; assay: MIC, standard method of Japanese Chemotherapy Academy; type: cell-based; settings: Objected Strain 3: Escherichia coli NIH JC-2
Method: (§4) 1. Minimum Inhibitory Concentration (MIC) was measured in accordance with the standard method of Japanese Chemotherapy Academy (Chemotherapy, 29: 76-79, 1981).

[17] = test system: Staphylococcus aureus 209PJC; assay: as above; type: cell-based; settings: Strain 11: Staphylococcus aureus 209PJC
Method: as §4
(§5) And MIC of the compounds of Example 3, 36, 8, 14, 17, 21, 41 and 45 were measured.

[18] = test system: Staphylococcus aureus ATCC 6538; assay: as above; type: cell-based; settings: Strain 12: Staphylococcus aureus ATCC 6538
Method: as §4, §5

[19] = test system: Bacillus subtilis ATCC 6633; assay: as above; type: cell-based
Method: as §4, §5

[20] = test system: Staphylococcus aureus No. 2 (MRSA); assay: as above; type: cell-based; settings: Strain 14: Staphylococcus aureus No. 2 (MRSA)
Method: as §4, §5

[21] = test system: ethanol hydrochloride ulceration; settings: against an ethanol hydrochloride ulceration; cited from earlier work
helicobacter pylori = assay: MIC of benexart hydrochloride, for reference; type: cell-based; settings: strain and medium not given
Method: For reference, the value of MIC of benexart hydrochloride was >100 µg/ml.

MIC [1]: 0.20 mg/L | MIC [2]: 0.10 mg/L | MIC [3]: 0.39 mg/L | MIC [4]: 0.39 mg/L | MIC [5]: 0.10 mg/L | MIC [6]: 0.39 mg/L | MIC [7]: 0.20 mg/L | MIC [8]: 0.20 mg/L | MIC [9]: 0.20 mg/L | MIC [10]: 0.10 mg/L | MIC [11]: 0.39 mg/L | MIC [12]: 0.39 mg/L | MIC [13]: 0.39 mg/L | MIC [14]: 0.39 mg/L | MIC [15]: 0.39 mg/L | MIC [16]: >25 mg/L | MIC [17]: >25 mg/L | MIC [18]: >25 mg/L | MIC ([19]; Strain 13: Bacillus subtilis ATCC 6633): >25 mg/L | MIC against bacillus subcillus ATCC 6633 ([19]; standard method of Japanese Chemotherapy Academy): > 25 mg/L | MIC [20]: >25 mg/L
Compound: Cc1ccc(COC(=O)c2ccc(-c3ccc(OC(=O)[C@H]4CC[C@H](CNC(=N)N)CC4)cc3)cc2)cc1.Cl [Example 14, trans-4-guanidinomethyl cyclohexane carboxylic acid [4-[4-(4-methylbenzyloxy carbonyl)phenyl]phenylester].hydrochloride]
MBC [8]: 0.20 mg/L | MBC [9]: 0.20 mg/L | MBC [10]: 0.10 mg/L | MBC [11]: 1.56 mg/L | MBC [12]: 1.56 mg/L | MBC [13]: 0.39 mg/L

Compound: N=C(N)NCC1CCC(C(=O)Oc2ccc(CCC(=O)NO)cc2)CC1 (centres unmarked) [Formula (XIV)]
ulceration restraining ratio [21]: 88.7%

MIC (helicobacter pylori): > 100 mg/L
Compound: Cl.NC(N)=NCC1CCC(C(=O)Oc2ccccc2C(=O)OCc2ccccc2)CC1 (centres unmarked) [benexart hydrochloride]
